Measured values: patent EP4458352A1, “EICOSAPENTAENOIC ACID ESTER DERIVATIVES FOR THE TREATMENT OF OBESITY” (Technische Universität Dresden, priority 2023, dated 2024)

Assays:
[1] = tested on: primary adrenal cell cultures; test: Steroid hormone production (LC-MS/MS) in primary adrenal cell cultures treated with SC-26196, with or without ACTH or ARA; format: cell-based, WT C57BL/6J mice
Protocol: Adrenal glands or adrenal corteces were isolated from WT C57BL/6J mice, cleaned from the surrounding fat tissue and incubated in collagenase buffer (1.6 mg/ml collagenase type I, 1.6 mg/ml BSA) for 45 min at 37 °C, while shaking at 900 rpm. Dissociated cells were passed through 22 G needle and a 100 µm cell strainer and centrifuged at 300 × g for 5 min at 4 °C. Cells of a pool from two adrenals of each mouse were distributed in four 0.2 % gelatin-precoated wells of a 96-well plate in DMEM/F12 supplemented with 1 % FBS, 50 U/mL penicillin and 50 µg/mL streptomycin. Two hours after seeding 10 µM SC-26196 (Tocris, Wiesbaden-Nordenstadt, Germany) or same amount of carrier (DMSO) were added without changing the medium. In some experiments medium was additionally supplemented with 150 µM ARA (Sigma Aldrich, Germany) or same amount of solvent (endotoxin-free water). When induction of steroidogenesis was required, the medium was changed 18 h after treatment and the cells were incubated with or without 10 ng/mL ACTH for 60 min in the presence of either 10 µM SC-26196 or DMSO. Supernatants were kept for steroid hormone measurement and cell lysates were collected for transcriptional analysis. In some experiments, primary CD31-CD45- adrenocortical cells were treated or not for 18 h with 66 µM EPA (Sigma-Aldrich). Steroid hormones in plasma and cell culture supernatants were analyzed by LC-MS/MS as previously described (71). Fifty to hundred µL plasma or cell culture supernatants were extracted by solid phase extraction using positive pressure, followed by a dry-down under gentle stream of nitrogen. Residues were reconstituted in 100 µL of the initial LC mobile phase and 10 µL were injected for detection by the triple quadrupole mass spectrometer in multiple reaction-monitoring scan mode using positive electrospray ionization. Quantification of steroid concentrations was done by comparisons of ratios of analyte peak areas to respective peak areas of stable isotope labeled internal standards obtained in samples to those of calibrators.

[2] = tested on: HFD mice; test: Hair corticosteroid levels (LC-MS/MS) in HFD mice given dietary SC-26196; format: in vivo, WT C57BL/6J mice
Protocol: Six weeks-old male WT C57BL/6J mice were fed for 20 weeks a LFD (D12450B, Research Diets, NJ, USA) or a HFD (D12492, Research Diets, NJ, USA). In some experiments, WT C57BL/6J mice were fed for 8 weeks a HFD and for another 8 weeks a HFD supplemented with SC-26196 (Biorbyt Ltd). SC-26196 was mixed in the HFD at a concentration of 625 mg/kg of diet corresponding to approx. 100 mg/kg of animal weight. In other experiments WT mice were fed for 10 weeks a HFD and for another 10 weeks a HFD supplemented with icosapent ethyl (Vascepa). The content of Vascepa capsules was mixed by Research Diets with the diet at a concentration of 1.125 g/kg icosapent ethyl (corresponding to approx. 180 mg/kg of animal weight). Mice were weighed every week. Glucose and insulin tolerance tests were performed as previously described (20, 21). Three to five mg of hair (2-3 mm close to the skin on the back of the mice) were cut while gently holding the mice without anaesthesia.
Corticosterone and 11-dehydrocorticosterone in hair were extracted with methanol as described elsewhere. In brief, hair (3-5 mg) was washed by addition of 2.5 mL isopropanol. After 3 minutes the isopropanol was decanted and hair samples were dried in a fume hood. After drying, hair samples were extracted in 1.8 mL methanol that contained the internal standard mixtures for 18 h at room temperature. Finally, the methanolic extract was dried down, followed by reconstitution in respective mobile phase and analysis by LC-MS/MS as previously described with minor modifications. […] Corticosterone and 11-dehydrocorticosterone were detected by using the multi reaction monitoring scan mode with respective quantifier ions of 347.1->329.2 and 345.1->121.1, and qualifier ions of 347.1->90.9 and 345.1->242.3. […] Quantification of steroid hormones was achieved by comparisons of ratios of analyte peak areas to internal standard peak areas observed in samples to those in calibrators. Measured steroid concentrations were normalized to sample weights.

[3] = SC-26196 10 µM 18 h, then ACTH 10 ng/mL for 1 h, n=12
[4] = 6 weeks after SC-26196 treatment start, HFD containing 0.625 g/kg SC-26196 vs control, n=8-10

For N#CC(CCCN1CCN(/N=C/c2cccnc2)CC1)(c1ccccc1)c1ccccc1 [SC-26196], the 11-deoxycorticosterone production [1, 3] was “abolished”, the aldosterone production [1, 3] was “abolished” and the corticosterone production [1, 3] was “abolished”. For the same molecule, the progesterone production [1, 3] was “abolished”, the cell viability ([1]; SC-26196-treated primary adrenal cell cultures, data not shown) was “without affecting cell viability” and the “levels of 11-dehydrocorticosterone in newly-grown hair” value ([2]; 3 weeks after SC-26196 treatment start, HFD containing 0.625 g/kg SC-26196 (approx. 100 mg/kg of animal weight) vs control) was “reduced”. The “11-dehydrocorticosterone levels in the hair” value [2, 4] was “reduced” and the “corticosterone levels in the hair” value [2, 4] was “reduced”.
